Data reported in patent publication US9469639B2, “Naphthylurea derivatives and medical applications thereof” (RADIANT PHARMA & TECH. CO., LTD., priority 2013, dated 2016).
Converted amounts (≈) assume the structure as drawn.

Assay: Water-solubility test
Assay type: physicochemical
Settings: 22° C.; for solubility at 24 h: water, pH 5.5, water, thermodynamic from solid, ultrasonic mixing for 24 hours, pH5.5, average of two experiments

| SMILES | solubility at 24 h [µg/mL] | Water solubility relative to compound (IV) (pH5.5, ratio versus compound (IV)) [times] |
| --- | --- | --- |
| Cc1cccc(NC(=O)Nc2ccc(-c3cncc4[nH]nc(N)c34)c3ccccc23)c1 [Compound (IV)] | 0.0925 (≈ 0.226 µM) | – |
| Cc1ccc(F)c(NC(=O)Nc2ccc(-c3ccc(OCCCN4CCCC4)c4[nH]nc(N)c34)c3ccccc23)c1 [Compound (V)] | 0.64 (≈ 1.16 µM) | 6.9 |
